Reference: patent US20020137929A1, “1 - (3-heterocyclylphenyl) isothiourea, -isourea, -guanidine and -amidine herbicidal agents” (Intellectual Property Department, BASF Aktiengesellschaft, priority 1998, published 2002)

How the values were obtained:
CASOB (Sicklepod) [1] = experiment: Postemergence herbicidal evaluation; assay type: in vivo, Cassia obtusifolia; conditions: postemergence
How it was run: (§1)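 Visual 0–9 rating versus control (stand, vigor, malformation, size, chlorosis, overall appearance), taken four to five weeks post-spray. Two-week-old seedlings received roughly 0.0156–0.500 kg/ha active in acetone/water (50/50) with 0.5% TWEEN 20 via nozzle at 40 psi.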

CASOB (Sicklepod) [2] = experiment: Preemergence herbicidal evaluation; assay type: in vivo, Cassia obtusifolia; conditions: rated 4-5 weeks after treatment
How it was run: (§2)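 Rating at 4–5 wk post-spray on a 0–9 visual scale vs control. Application: aqueous acetone, ~0.0156–0.500 kg/ha, to soil surface after seeding, preemergence.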

CYPSE (Flatsedge) [3] = experiment: Preemergence weed control under flooded paddy conditions; assay type: in vivo, Cyperus serotinus; conditions: rated 3-4 weeks after treatment
How it was run: (§3)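 Flooded-pot preemergence screen with silt loam and seeds in the upper 0.5 cm. Dose about 0.0313 to 0.500 kg/ha, delivered into flood water; visual 0-9 score after 3 to 4 weeks.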

[4] = test system: CHEAL (Lambsquarters, Common); experiment: Postemergence herbicidal evaluation; assay type: in vivo, Chenopodium album; conditions: postemergence
How it was run: as §1

GALAP (Galium) [5] = experiment: Postemergence herbicidal evaluation; assay type: in vivo, Galium aparine; conditions: postemergence
How it was run: as §1

ZEAMX (Corn, Field) = experiment: Preemergence herbicidal evaluation; assay type: in vivo, Zea mays; conditions: rated 4-5 weeks after treatment
How it was run: as §2

[6] = test system: GLXMAW (Soybean, Williams); experiment: Postemergence herbicidal evaluation; assay type: in vivo, Glycine max, (L.) Merr. cv Williams; conditions: postemergence
How it was run: as §1

CYPIR (Rice Flatsedge) = experiment: Preemergence weed control under flooded paddy conditions; assay type: in vivo, Cyperus iria; conditions: rated 3-4 weeks after treatment
How it was run: as §3

CYPSE (Flatsedge) [7] = experiment: Postemergence weed control under flooded paddy conditions; assay type: in vivo, Cyperus serotinus; conditions: postemergence weeds, 3-4 weeks after treatment
How it was run: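 Containers holding 3–5 cm weeds and rice at 1.5–2.5 leaves are flooded to 1.5–3 cm above soil. Compound in 50/50 v/v aqueous/acetone is then added directly to the water, about 0.0313–0.500 kg/ha. Plants are kept in the greenhouse and rated 0–9 visually at 3–4 weeks.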

[8] = test system: SAGPY (Arrowhead (Pygmaea)); experiment: Preemergence weed control under flooded paddy conditions; assay type: in vivo, Sagittaria pygmaea; conditions: rated 3-4 weeks after treatment
How it was run: as §3

AMBEL (Ragweed, Common) = experiment: Postemergence herbicidal evaluation; assay type: in vivo, Ambrosia artemisifolia; conditions: postemergence
How it was run: as §1

GALAP (Galium) [9] = experiment: Preemergence herbicidal evaluation; assay type: in vivo, Galium aparine; conditions: rated 4-5 weeks after treatment
How it was run: as §2

SETVI (Foxtail, Green) = experiment: Postemergence herbicidal evaluation; assay type: in vivo, Setaria viridis; conditions: postemergence
How it was run: as §1

ORYSAT (Rice, Tebonnet) = experiment: Postemergence herbicidal evaluation; assay type: in vivo, Oryza sativa, (L.) Tebonnet; conditions: postemergence
How it was run: as §1

ECHCG (Barnyardgrass) = experiment: Postemergence herbicidal evaluation; assay type: in vivo, Echinochloa crus-galli; conditions: postemergence
How it was run: as §1

CN1C(=O)CSC1=Nc1cc(N2C(=O)C3=C(CCCC3)C2=O)c(F)cc1Cl [Compound 1, N-{4-chloro-2-fluoro-5-[(3-methyl-4-oxo-2-thiazolidinylidene)amino]phenyl}-1-cyclohexene-1,2-dicarboximide]
CASOB herbicidal rating (CASOB (Sicklepod) [1]; rate 0.0157 kg/ha): 0.0 | CASOB herbicidal rating (CASOB (Sicklepod) [1]; rate 0.0313 kg/ha): 2.0 | CASOB herbicidal rating (CASOB (Sicklepod) [1]; rate 0.0625 kg/ha): 4.0 | CASOB herbicidal rating (CASOB (Sicklepod) [1]; rate 0.1250 kg/ha): 4.0 | CASOB herbicidal rating (CASOB (Sicklepod) [1]; rate 0.2500 kg/ha): 6.0 | CASOB herbicidal rating (CASOB (Sicklepod) [1]; rate 0.5000 kg/ha): 7.0 | CASOB preemergence herbicidal rating (CASOB (Sicklepod) [2]; rate 0.0313 kg/ha): 0.0 | CASOB preemergence herbicidal rating (CASOB (Sicklepod) [2]; rate 0.0625 kg/ha): 3.0 | CASOB preemergence herbicidal rating (CASOB (Sicklepod) [2]; rate 0.1250 kg/ha): 2.0 | CASOB preemergence herbicidal rating (CASOB (Sicklepod) [2]; rate 0.2500 kg/ha): 6.0 | CASOB preemergence herbicidal rating (CASOB (Sicklepod) [2]; rate 0.5000 kg/ha): 6.7 | Herbicidal rating CYPSE (CYPSE (Flatsedge) [3]; 0.0313 kg/ha): 0.0 | Herbicidal rating CYPSE (CYPSE (Flatsedge) [3]; 0.0625 kg/ha): 0.0 | Herbicidal rating CYPSE (CYPSE (Flatsedge) [3]; 0.1250 kg/ha): 0.0 | Herbicidal rating CYPSE (CYPSE (Flatsedge) [3]; 0.2500 kg/ha): 2.0 | Herbicidal rating CYPSE (CYPSE (Flatsedge) [3]; 0.5000 kg/ha): 8.0 | CHEAL herbicidal rating ([4]; rate 0.0157 kg/ha): 6.0 | CHEAL herbicidal rating ([4]; rate 0.0313 kg/ha): 7.0 | CHEAL herbicidal rating ([4]; rate 0.0625 kg/ha): 7.0 | CHEAL herbicidal rating ([4]; rate 0.1250 kg/ha): 9.0 | CHEAL herbicidal rating ([4]; rate 0.2500 kg/ha): 9.0 | CHEAL herbicidal rating ([4]; rate 0.5000 kg/ha): 9.0 | GALAP herbicidal rating (GALAP (Galium) [5]; rate 0.0157 kg/ha): 4.0 | GALAP herbicidal rating (GALAP (Galium) [5]; rate 0.0313 kg/ha): 6.0 | GALAP herbicidal rating (GALAP (Galium) [5]; rate 0.0625 kg/ha): 6.0 | GALAP herbicidal rating (GALAP (Galium) [5]; rate 0.1250 kg/ha): 8.0 | GALAP herbicidal rating (GALAP (Galium) [5]; rate 0.2500 kg/ha): 9.0 | GALAP herbicidal rating (GALAP (Galium) [5]; rate 0.5000 kg/ha): 9.0 | ZEAMX preemergence herbicidal rating (ZEAMX (Corn, Field); rate 0.0313 kg/ha): 0.0 | ZEAMX preemergence herbicidal rating (ZEAMX (Corn, Field); rate 0.0625 kg/ha): 0.0 | ZEAMX preemergence herbicidal rating (ZEAMX (Corn, Field); rate 0.1250 kg/ha): 0.0 | ZEAMX preemergence herbicidal rating (ZEAMX (Corn, Field); rate 0.2500 kg/ha): 0.0 | ZEAMX preemergence herbicidal rating (ZEAMX (Corn, Field); rate 0.5000 kg/ha): 2.0 | GLXMAW herbicidal rating ([6]; rate 0.0157 kg/ha): 4.0 | GLXMAW herbicidal rating ([6]; rate 0.0313 kg/ha): 4.5 | GLXMAW herbicidal rating ([6]; rate 0.0625 kg/ha): 4.5 | GLXMAW herbicidal rating ([6]; rate 0.1250 kg/ha): 5.0 | GLXMAW herbicidal rating ([6]; rate 0.2500 kg/ha): 5.5 | GLXMAW herbicidal rating ([6]; rate 0.5000 kg/ha): 6.0 | Herbicidal rating CYPIR (CYPIR (Rice Flatsedge); 0.0313 kg/ha): 2.0 | Herbicidal rating CYPIR (CYPIR (Rice Flatsedge); 0.0625 kg/ha): 7.0 | Herbicidal rating CYPIR (CYPIR (Rice Flatsedge); 0.1250 kg/ha): 9.0 | Herbicidal rating CYPIR (CYPIR (Rice Flatsedge); 0.2500 kg/ha): 9.0 | Herbicidal rating CYPIR (CYPIR (Rice Flatsedge); 0.5000 kg/ha): 9.0 | Herbicidal rating CYPSE (CYPSE (Flatsedge) [7]; rate 0.0313 kg/ha): 0.0 | Herbicidal rating CYPSE (CYPSE (Flatsedge) [7]; rate 0.0625 kg/ha): 0.0 | Herbicidal rating CYPSE (CYPSE (Flatsedge) [7]; rate 0.1250 kg/ha): 0.0 | Herbicidal rating CYPSE (CYPSE (Flatsedge) [7]; rate 0.2500 kg/ha): 1.0 | Herbicidal rating CYPSE (CYPSE (Flatsedge) [7]; rate 0.5000 kg/ha): 4.0 | Herbicidal rating SAGPY ([8]; 0.0313 kg/ha): 0.0 | Herbicidal rating SAGPY ([8]; 0.0625 kg/ha): 0.0 | Herbicidal rating SAGPY ([8]; 0.1250 kg/ha): 0.0 | Herbicidal rating SAGPY ([8]; 0.2500 kg/ha): 0.0 | Herbicidal rating SAGPY ([8]; 0.5000 kg/ha): 0.0 | AMBEL herbicidal rating (AMBEL (Ragweed, Common); rate 0.0157 kg/ha): 2.0 | AMBEL herbicidal rating (AMBEL (Ragweed, Common); rate 0.0313 kg/ha): 3.0 | AMBEL herbicidal rating (AMBEL (Ragweed, Common); rate 0.0625 kg/ha): 3.0 | AMBEL herbicidal rating (AMBEL (Ragweed, Common); rate 0.1250 kg/ha): 5.0 | AMBEL herbicidal rating (AMBEL (Ragweed, Common); rate 0.2500 kg/ha): 7.0 | AMBEL herbicidal rating (AMBEL (Ragweed, Common); rate 0.5000 kg/ha): 8.0 | GALAP preemergence herbicidal rating (GALAP (Galium) [9]; rate 0.0313 kg/ha): 9.0 | GALAP preemergence herbicidal rating (GALAP (Galium) [9]; rate 0.0625 kg/ha): 7.0 | GALAP preemergence herbicidal rating (GALAP (Galium) [9]; rate 0.1250 kg/ha): 9.0 | GALAP preemergence herbicidal rating (GALAP (Galium) [9]; rate 0.2500 kg/ha): 9.0 | GALAP preemergence herbicidal rating (GALAP (Galium) [9]; rate 0.5000 kg/ha): 8.0 | SETVI herbicidal rating (SETVI (Foxtail, Green); rate 0.0157 kg/ha): 1.0 | SETVI herbicidal rating (SETVI (Foxtail, Green); rate 0.0313 kg/ha): 3.0 | SETVI herbicidal rating (SETVI (Foxtail, Green); rate 0.0625 kg/ha): 4.0 | SETVI herbicidal rating (SETVI (Foxtail, Green); rate 0.1250 kg/ha): 7.0 | SETVI herbicidal rating (SETVI (Foxtail, Green); rate 0.2500 kg/ha): 7.0 | SETVI herbicidal rating (SETVI (Foxtail, Green); rate 0.5000 kg/ha): 9.0 | ORYSAT herbicidal rating (ORYSAT (Rice, Tebonnet); rate 0.0157 kg/ha): 1.0 | ORYSAT herbicidal rating (ORYSAT (Rice, Tebonnet); rate 0.0313 kg/ha): 1.5 | ORYSAT herbicidal rating (ORYSAT (Rice, Tebonnet); rate 0.0625 kg/ha): 3.0 | ORYSAT herbicidal rating (ORYSAT (Rice, Tebonnet); rate 0.1250 kg/ha): 3.5 | ORYSAT herbicidal rating (ORYSAT (Rice, Tebonnet); rate 0.2500 kg/ha): 5.5 | ORYSAT herbicidal rating (ORYSAT (Rice, Tebonnet); rate 0.5000 kg/ha): 5.5 | ECHCG herbicidal rating (ECHCG (Barnyardgrass); rate 0.0157 kg/ha): 0.0 | ECHCG herbicidal rating (ECHCG (Barnyardgrass); rate 0.0313 kg/ha): 0.0 | ECHCG herbicidal rating (ECHCG (Barnyardgrass); rate 0.0625 kg/ha): 2.0 | ECHCG herbicidal rating (ECHCG (Barnyardgrass); rate 0.1250 kg/ha): 2.0 | ECHCG herbicidal rating (ECHCG (Barnyardgrass); rate 0.2500 kg/ha): 5.0 | ECHCG herbicidal rating (ECHCG (Barnyardgrass); rate 0.5000 kg/ha): 7.0
